Results: patent publication US4565823A, “Medical agent for suppressing arteriosclerosis” (Yamanouchi Pharmaceutical Co., Ltd., priority 1982, dated 1986)
Counter-ions that a name gives are not always drawn.

Tests used:
[1] = test system: cholesterol levels in the serum; test: Effect on cholesterol levels in the serum (normal rats); format: in vivo; settings: oral
[2] = acute toxicity, mice (ICR); settings: mouse, in vivo
Text: (§1) Nicardipine hydrochloride is a low toxicity compound, and this fact is confirmed by acute toxicity examination experiment.

[3] = acute toxicity, dog (mongrel); format: in vivo; settings: in vivo, iv, only a range in parentheses printed
Text: as §1

dog (mongrel) = test: acute toxicity, dog (mongrel); format: in vivo; settings: p.o.
Text: as §1

[4] = acute toxicity, rats (S.D.); settings: rat, in vivo
Text: as §1

[5] = acute toxicity, rats (Wister); settings: rat, in vivo
Text: as §1

mice, rats, dog = test: acute toxicity examination (overall statement); settings: in vivo
Text: as §1

[6] = test system: cholesterol levels in the serum; test: Effect on cholesterol levels in the serum (hypercholesterolemia rats); format: in vivo, Male Sprague-Dawley rats; settings: for HDL chol. / HDL chol. / LDL + VLDL chol. / LDL + VLDL chol. / T. chol. (total cholesterol): oral; for effect on HDL cholesterol (words) / effect on total cholesterol in the serum (words): rat, in vivo
Procedure: Male Sprague-Dawley rats (JCL®, Nippon Clea Co. Ltd., Tokyo, Japan) weighing 90-100 g were fed semipurified diet containing 10% coconut oil, 1.5% cholesterol and 0.5% cholic acid. Three days after the start of feeding, the rats are allocated at random by the body weight to multiple groups each consisting 6-8 rats. On day 4 through 7, the drug suspension in 0.5% methylcellulose was orally given daily. […] Following the final dose, the rats were fasted overnight (approximately 16 hours). […] Serum was obtained by centrifugation at 1,600 xg for 15 min and stored at 4° C. in plastic tubes. The amount of total cholesterol and HDL cholesterol in the serum were determined. The determination of the total cholesterol was practiced by the method described in Schettler, G & Nussel; "Arbeitsmed. Sozialmed. Praventivmed." 10, 25 (1975) and the determination of HDL cholesterol was practiced by the method described in T. T. Ishikawa et al; "Lipids", 11, 628 (1976).

[7] = test system: aortic smooth muscle cell; test: 12-HETE-associated aortic smooth muscle cell migration, filter membrane technique in modified Boyden chambers; format: cell-based; settings: 6×10^-15 g/ml 12-HETE, 37° C.
Text: The effect of nicardipine on 12-HETE-associated aortic smooth muscle cell migration can be examined by measuring the migration of aortic smooth muscle cell by filter membrane technique in modified Boyden chambers as follows:
5×10^5 of the smooth muscle cells were suspended in Ca^2+ -containing culture medium supplemented with 5% calf serum containing various concentration of nicardipine. Control cultures contained the same volume, a final concentration of 1% (v/v), of […]. The suspensions of the smooth muscle cells were placed in the upper compartment of the chamber. The lower compartment of the chamber contained the same culture medium supplemented with 6×10^-15 g/ml of 12-HETE and 5% calf serum containing no nicardipine. The cells was incubated at 37° C. As control, medium with the same concentration of solvent (1% ethanol) containing no 12-HETE was used. Smooth muscle cell migration was quantitated microscopically by counting the number of cells that migrated into the filter. In each experiment, 10 high-power fields in 5 replicate cultures were examined to determine the number of cells that had migrated into the filers. Cell migration was expressed as cells/10 HPF (high-power fields) in FIG. 1.

[8] = hypercholesterolemia rats, 10 mg/kg
[9] = hypercholesterolemia rats, 30 mg/kg
[10] = hypercholesterolemia rats, 100 mg/kg
[11] = listed as nicardipine hydrochloride
[12] = hypercholesterolemia rats, 50 mg/kg
[13] = hypercholesterolemia rats, 200 mg/kg

## COC(=O)C1=C(C)NC(C)=C(C(=O)OCCN(C)Cc2ccccc2)C1c1cccc([N+](=O)[O-])c1 (centres unmarked) [Nicardipine hydrochloride]
[1]; 10 mg/kg
  HDL chol.: 29.6 ± 1.4 mg/dL
  HDL chol. / LDL + VLDL chol.: 3.020
  LDL + VLDL chol.: 9.8 ± 1.9 mg/dL
  T. chol. (total cholesterol): 39.4 ± 2.0 mg/dL
[1]; 30 mg/kg
  HDL chol.: 37.2 ± 2.7 mg/dL
  HDL chol. / LDL + VLDL chol.: 10.941
  LDL + VLDL chol.: 3.4 ± 1.6 mg/dL
  T. chol. (total cholesterol): 41.3 ± 4.7 mg/dL
[1]; 100 mg/kg
  HDL chol.: 39.8 ± 4.3 mg/dL
  HDL chol. / LDL + VLDL chol.: 14.214
  LDL + VLDL chol.: 2.8 ± 1.2 mg/dL
  T. chol. (total cholesterol): 40.8 ± 5.9 mg/dL
[2]; iv, mice (ICR) female
  LD50: 19.9 mg/kg
[2]; po, mice (ICR) female
  LD50: 650 mg/kg
[2]; po, mice (ICR) male
  LD50: 634 mg/kg
[2]; sc, mice (ICR) female
  LD50: 710 mg/kg
[2]; sc, mice (ICR) male
  LD50: 540 mg/kg
[3]
  LD50: 5 to 8.1 mg/kg
Dog (mongrel)
  MLD: > 60 mg/kg
[4]; iv, rats (S.D.) female
  LD50: 25 mg/kg
[4]; iv, rats (S.D.) male
  LD50: 18.1 mg/kg
[4]; po, rats (S.D.) female
  LD50: 557 mg/kg
[4]; po, rats (S.D.) male
  LD50: 643 mg/kg
[5]; iv, rats (Wister) female
  LD50: 17.2 mg/kg
[5]; iv, rats (Wister) male
  LD50: 15.5 mg/kg
[5]; po, rats (Wister) female
  LD50: 184 mg/kg
[5]; po, rats (Wister) male
  LD50: 187 mg/kg
[5]; sc, rats (Wister) female
  LD50: 606 mg/kg
[5]; sc, rats (Wister) male
  LD50: 677 mg/kg
mice, rats, dog
  acute toxicity: low toxicity
[6]; hypercholesterolemia rats
  effect on LDL chol: reduces remarkably LDL chol
[6]; [8]
  HDL chol.: 27.0 ± 1.8 mg/dL
  HDL chol. / LDL + VLDL chol.: 0.090
  LDL + VLDL chol.: 299.4 ± 52.8 mg/dL
  T. chol. (total cholesterol): 326.4 ± 52.0 mg/dL
[6]; [9]
  HDL chol.: 28.0 ± 0.5 mg/dL
  HDL chol. / LDL + VLDL chol.: 0.067
  LDL + VLDL chol.: 420.6 ± 53.2 mg/dL
  T. chol. (total cholesterol): 448.6 ± 52.8 mg/dL
[6]; [10]
  HDL chol.: 47.0 ± 1.8 mg/dL
  HDL chol. / LDL + VLDL chol.: 0.250
  LDL + VLDL chol.: 188.0 ± 26.4 mg/dL
  T. chol. (total cholesterol): 246.0 ± 24.6 mg/dL
[6]; [11]
  effect on HDL cholesterol (words): increases selectively HDL chol
  effect on total cholesterol in the serum (words): reduce the amount of total cholesterol in the serum

## CCOC(=O)C(C)(C)Oc1ccc(Cl)cc1 [clofibrate]
[1]; 50 mg/kg
  HDL chol.: 26.5 ± 2.5 mg/dL
  HDL chol. / LDL + VLDL chol.: 1.828
  LDL + VLDL chol.: 14.5 ± 1.0 mg/dL
  T. chol. (total cholesterol): 42.7 ± 2.3 mg/dL
[1]; 100 mg/kg
  HDL chol.: 30.3 ± 3.1 mg/dL
  HDL chol. / LDL + VLDL chol.: 3.258
  LDL + VLDL chol.: 9.3 ± 1.5 mg/dL
  T. chol. (total cholesterol): 39.7 ± 2.7 mg/dL
[1]; 200 mg/kg
  HDL chol.: 22.8 ± 2.7 mg/dL
  HDL chol. / LDL + VLDL chol.: 1.664
  LDL + VLDL chol.: 13.7 ± 2.1 mg/dL
  T. chol. (total cholesterol): 36.5 ± 4.4 mg/dL
[6]; [12]
  HDL chol.: 13.8 ± 1.0 mg/dL
  HDL chol. / LDL + VLDL chol.: 0.036
  LDL + VLDL chol.: 379.6 ± 92.6 mg/dL
  T. chol. (total cholesterol): 412.0 ± 77.8 mg/dL
[6]; [10]
  HDL chol.: 21.0 ± 2.5 mg/dL
  HDL chol. / LDL + VLDL chol.: 0.100
  LDL + VLDL chol.: 210.4 ± 55.8 mg/dL
  T. chol. (total cholesterol): 231.0 ± 54.2 mg/dL
[6]; [13]
  HDL chol.: 19.3 ± 2.8 mg/dL
  HDL chol. / LDL + VLDL chol.: 0.065
  LDL + VLDL chol.: 298.0 ± 66.2 mg/dL
  T. chol. (total cholesterol): 317.4 ± 64.4 mg/dL

## COC(=O)C1=C(C)NC(C)=C(C(=O)OCCN(C)Cc2ccccc2)C1c1cccc([N+](=O)[O-])c1 (centres unmarked) [nicardipine]
[7]
  inhibition of 12-HETE-associated aortic smooth muscle cell migration: inhibits 12-HETE-associated aortic smooth muscle cell migration (aortic smooth muscle cell migration induced by 12-L-hydroxy-5,8,10,14-eicosotetraenoic acid) significantly
[6]
  effect on HDL cholesterol (words): elevating high density lipoprotein (HDL) selectivity
  effect on total cholesterol in the serum (words): reducing cholesterol level increased in the serum

## COc1ccc(Cc2nccc3cc(OC)c(OC)cc23)cc1OC [papaverine]
[2]; iv, mice (ICR) male
  LD50: 27 mg/kg
[5]; iv, rats (Wister) male
  LD50: 13.3 mg/kg
